Experiment [1] addresses T1, Fc-fusion protein of human PSMA (hPSMA-Fc) (Homo sapiens, UniProt Q04609).
T1 construct: purchased Acro Biosystems PSA-H5264
The experiment can be described thus: Surface plasmon resonance assay (Biacore T200, single cycle kinetic). The following applies: hPSMA-Fc, 25° C., read-out: pKD CAT (converted). Type of experiment: binding. The essentials:
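hPSMA-Fc was captured (~1000 RU) on an Fc-binding-peptide CM5 chip, and compounds were run in single cycle kinetic mode at 25° C in HBST with 0.1% DMSO. Double-blank-corrected sensorgrams were fitted to a 1:1 Langmuir model to give KD, reported as pKD.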
For orientation: Surface plasmon resonance follows binding to a sensor surface in real time, without labels.

The target in experiment [2] is T2, PSMA-expressing C4-2 cells (Homo sapiens, UniProt Q04609).
T2 construct: PSMA-expressing C4-2 cells (ATCC, Cat. No. CRL-3314) were cultured in RPMI-1640; host or cells: C4-2 cells
The experiment can be described thus: FACS binding assay (competition with 50 nM PSM-0183). The following applies: C4-2 cells, read-out: pIC50 [C4-2] CAT (converted). In outline: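 C4-2 cells were incubated 1 h at 4 °C with 50 nM AF488-labelled peptide PSM-0183 plus increasing test compound concentrations, then washed twice in ice-cold buffer. Median fluorescence in the AF488 channel was read by flow cytometry. IC50/pIC50 was derived by 4PL fitting of MFI versus concentration.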

[3] abbreviates: SPR, single cycle kinetic, category.
Setting [4] is: FACS binding, competition with 50 nM PSM-0183, category.
The mark [5] stands for this setting: pKD category for PSMA SPR activity assay.

Like-named read-outs stand apart in the source and are kept apart here. Numbered stars: 1 amine (or outer) side, 2 acyl side, 3 side chain; on linkers, the order of the positions; unused ones are H or OH. Bridge positions count the residues as written; N and C are the ends. Square brackets hold non-standard residues; d marks the D form. Peptide text beside a SMILES is read from it. * marks the point of attachment. DOTA = O=C(O)CN1CCN(CC(=O)O)CCN(CC(=O)*)CCN(CC(=O)O)CC1; Biotin = O=C1N[C@H]2[C@H](CS[C@H]2CCCCC(=O)*)N1; Phe(4-Cl) = N[C@@H](Cc1ccc(Cl)cc1)C(=O)O; X1 = O=C(CC1CCN([*:1])CC1)[*:2]; Cit = NC(=O)NCCC[C@H](N)C(=O)O; NMeK = CN[C@@H](CCCCN)C(=O)O; Tle = CC(C)(C)[C@H](N)C(=O)O; 4Amb = NCc1ccc(C(=O)O)cc1; Aib = CC(C)(N)C(=O)O; CO = O=C([*:1])[*:2]; NHBu = CCCCN*

T2 sequence (Q04609 whole entry): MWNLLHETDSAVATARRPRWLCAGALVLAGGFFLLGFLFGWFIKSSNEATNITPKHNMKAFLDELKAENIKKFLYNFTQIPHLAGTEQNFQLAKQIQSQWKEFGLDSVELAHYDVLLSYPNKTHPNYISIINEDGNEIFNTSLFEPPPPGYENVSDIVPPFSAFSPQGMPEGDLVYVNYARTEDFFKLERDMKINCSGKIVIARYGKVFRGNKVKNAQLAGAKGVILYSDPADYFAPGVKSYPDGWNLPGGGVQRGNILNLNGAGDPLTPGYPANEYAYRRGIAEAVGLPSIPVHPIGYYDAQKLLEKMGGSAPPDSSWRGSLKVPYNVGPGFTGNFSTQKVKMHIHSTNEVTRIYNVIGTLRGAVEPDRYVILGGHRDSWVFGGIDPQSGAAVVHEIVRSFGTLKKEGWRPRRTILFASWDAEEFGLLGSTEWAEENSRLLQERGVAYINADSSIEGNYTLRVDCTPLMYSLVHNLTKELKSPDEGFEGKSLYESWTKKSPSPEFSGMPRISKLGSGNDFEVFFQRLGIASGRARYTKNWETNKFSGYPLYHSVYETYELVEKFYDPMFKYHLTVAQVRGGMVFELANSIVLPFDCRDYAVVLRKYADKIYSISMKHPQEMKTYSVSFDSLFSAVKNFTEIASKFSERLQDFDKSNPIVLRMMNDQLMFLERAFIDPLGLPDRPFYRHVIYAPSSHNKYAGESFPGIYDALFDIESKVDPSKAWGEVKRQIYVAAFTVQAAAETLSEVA
T1 sequence (Q04609 44-750 limits assumed): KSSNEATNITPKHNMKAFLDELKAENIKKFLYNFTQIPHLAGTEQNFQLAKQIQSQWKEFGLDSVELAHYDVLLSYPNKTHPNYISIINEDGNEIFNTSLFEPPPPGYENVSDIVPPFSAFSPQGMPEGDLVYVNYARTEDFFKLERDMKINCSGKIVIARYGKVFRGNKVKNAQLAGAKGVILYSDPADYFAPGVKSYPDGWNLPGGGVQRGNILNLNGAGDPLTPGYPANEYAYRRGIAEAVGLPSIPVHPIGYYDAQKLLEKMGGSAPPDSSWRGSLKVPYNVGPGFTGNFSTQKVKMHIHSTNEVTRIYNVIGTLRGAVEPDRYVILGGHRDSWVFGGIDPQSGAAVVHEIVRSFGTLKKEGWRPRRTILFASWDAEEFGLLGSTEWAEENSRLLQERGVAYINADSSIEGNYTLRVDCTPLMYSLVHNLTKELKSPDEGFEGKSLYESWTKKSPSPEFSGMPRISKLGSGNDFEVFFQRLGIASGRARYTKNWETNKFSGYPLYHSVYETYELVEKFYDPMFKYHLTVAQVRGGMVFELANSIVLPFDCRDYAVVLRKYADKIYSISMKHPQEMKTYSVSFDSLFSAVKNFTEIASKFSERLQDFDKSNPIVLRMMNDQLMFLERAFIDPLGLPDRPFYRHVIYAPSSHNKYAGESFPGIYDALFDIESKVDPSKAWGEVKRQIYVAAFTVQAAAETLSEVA

As to `CCCCNC(=O)N[C@H](C(=O)NC(C)(C)C(=O)N[C@@H](Cc1ccc(Cl)cc1)C(=O)N[C@H]1CSSC[C@@H](C(=O)N[C@H](C(=O)N[C@H](C(=O)N2CCC(CC(=O)N[C@H](CCCCNC(=O)CN3CCN(CC(=O)O)CCN(CC(=O)O)CCN(CC(=O)O)CC3)C(N)=O)CC2)[C@@H](C)O)C(C)(C)C)NC(=O)[C@H](CC(N)=O)NC(=O)C(C)(C)NC(=O)[C@H](CCCNC(N)=O)NC(=O)[C@H](CCCCN)NC1=O)[C@@H](C)O` [PSM-0204, nBuCAyl-Thr-Aib-Pcf-[Cys-Lys-Cit-Aib-Asn-Cys]-Tle-Thr-Cmp-lys(DOTA)-NH2] ({NHBu-CO}-T[Aib][Phe(4-Cl)]CK[Cit][Aib]NC[Tle]T[X1][dK](DOTA)-NH2; disulfide 4-9), the Kd in experiment [1] (setting [3]) was 12.6 to 126 nM. The IC50 in experiment [2] (setting [4]) is below 200 nM.
Turning to `C[C@@H](O)[C@H](NC(=O)[C@@H](NC(=O)[C@@H]1CSSC[C@H](NC(=O)[C@H](Cc2ccc(Cl)cc2)NC(=O)C(C)(C)NC(=O)[C@@H](NC(=O)CC2CCN(C(=O)CN3CCN(CC(=O)O)CCN(CC(=O)O)CCN(CC(=O)O)CC3)CC2)[C@@H](C)O)C(=O)N[C@@H](CCCCNC(=O)CCCC[C@@H]2SC[C@@H]3NC(=O)N[C@@H]32)C(=O)N[C@@H](CCCNC(=N)N)C(=O)NC(C)(C)C(=O)N[C@@H](CC(N)=O)C(=O)N1)C(C)(C)C)C(N)=O` [PSM-0490, DOTA-Cmp-Thr-Aib-Pcf-[Cys-Lys (Bio)-Arg-Aib-Asn-Cys]-Tle-Thr-NH2] ({DOTA}-[X1]T[Aib][Phe(4-Cl)]CK(Biotin)R[Aib]NC[Tle]T-NH2; disulfide 5-10), in experiment [1] (setting [5]), the Kd was below 12.6 nM. In addition, the IC50 in experiment [2] (pIC50 category of FACS binding) is 200 to 1260 nM.
The like results for `CCCC[C@H](NC(=O)[C@@H]1CSSC[C@H](NC(=O)[C@H](Cc2ccccc2)NC(=O)[C@H](C)NC(=O)[C@@H](NC(C)=O)[C@@H](C)O)C(=O)N[C@@H](CCCCN)C(=O)N[C@@H](CCCNC(=N)N)C(=O)N[C@@H](C)C(=O)N[C@@H](CC(N)=O)C(=O)N1)C(=O)N[C@H](C(=O)N[C@H](CC(=O)O)C(N)=O)[C@@H](C)O` (single isomer, unassigned) [PSM-0436, Ac-Thr-Ala-phe-[Cys-Lys-Arg-Ala-Asn-Cys]-Nle-Thr-Asp-NH2] were, in that order, above 501 nM and above 3160 nM.
Turning to `CCCC[C@H](NC(=O)[C@@H]1CSSC[C@H](NC(=O)[C@H](Cc2ccccc2)NC(=O)[C@H](C)NC(=O)[C@@H](NC(C)=O)[C@@H](C)O)C(=O)N[C@@H](CCCCN)C(=O)N[C@@H](CCCNC(=N)N)C(=O)N[C@@H](C)C(=O)N[C@@H](CC(N)=O)C(=O)N1)C(=O)N[C@@H](C(=O)N[C@H](CC(=O)O)C(N)=O)[C@H](C)O` [PSM-0182, Ac-Thr-Ala-Phe-[Cys-Lys-Arg-Ala-Asn-Cys]-Nle-thr-Asp-NH2], the Kd in experiment [1] (setting [3]) was above 501 nM. Besides, the IC50 in experiment [2] (setting [4]) is 1260 to 3160 nM.
With `C[C@@H](O)[C@H](NC(=O)[C@@H](NC(=O)[C@@H]1CSSC[C@H](NC(=O)[C@H](Cc2ccc(Cl)cc2)NC(=O)C(C)(C)NC(=O)[C@@H](NC(=O)CC2CCN(C(=O)CN3CCN(CC(=O)O)CCN(CC(=O)O)CCN(CC(=O)O)CC3)CC2)[C@@H](C)O)C(=O)N(C)[C@@H](CCCCN)C(=O)N[C@@H](CCCNC(=N)N)C(=O)NC(C)(C)C(=O)N[C@@H](CC(N)=O)C(=O)N1)C(C)(C)C)C(N)=O` [PSM-0548, DOTA-Cmp-Thr-Aib-Pcf-[Cys-Nmk-Arg-Aib-Asn-Cys]-Tle-Thr-NH2] ({DOTA}-[X1]T[Aib][Phe(4-Cl)]C[NMeK]R[Aib]NC[Tle]T-NH2; disulfide 5-10), the Kd in experiment [1] (setting [5]) was 12.6 to 126 nM. Moreover, the IC50 in experiment [2] (pIC50 category of FACS binding) is 200 to 1260 nM.
In the case of `CC(C)(NC(=O)c1ccc(CNC(=O)CN2CCN(CC(=O)O)CCN(CC(=O)O)CCN(CC(=O)O)CC2)cc1)C(=O)N[C@@H](Cc1ccccc1)C(=O)N[C@H]1CSSC[C@@H](C(=O)N[C@H](C(N)=O)C(C)(C)C)NC(=O)[C@H](CC(N)=O)NC(=O)C(C)(C)NC(=O)[C@H](CCCNC(=N)N)NC(=O)[C@H](CCCCN)NC1=O` [PSM-0458, DOTA-Pamb-Aib-Phe-[Cys-Lys-Arg-Aib-Asn-Cys]-Tle-NH2] ({DOTA-4Amb}-[Aib]FCKR[Aib]NC[Tle]-NH2; disulfide 3-8), the Kd in experiment [1] (setting [5]) is 12.6 to 126 nM. In experiment [2] (pIC50 category of FACS binding), the IC50 was below 200 nM.

Source of the values: patent US20260083865A1, “PROSTATE SPECIFIC MEMBRANE ANTIGEN (PSMA) LIGANDS AND USE THEREOF” (priority 2022, published 2026).
